Test results reported in patent publication US11510931B2, “Compositions and methods for treating ophthalmic conditions” (MEDICON PHARMACEUTICALS, INC., priority 2016, dated 2022).

Columns and labels:
[1] = tested on: cornea of New Zealand white rabbits; assay: Corneal touch threshold (CTT), Cochet-Bonnet aesthesiometer; type: in vivo, rabbit
Description: The analgesic effect of PS was determined by measuring the corneal touch threshold (CTT) using the Luneau Cochet-Bonnet Aeshesiometer (Western Ophthalmics, Lynwood, Wash.), an adjustable nylon monofilament with a defined diameter, which is applied in different lengths to the center of the cornea. This device is generally described in Lima L, Lange R R, Turner-Giannico A, Montiani-Ferreira F. Evaluation of standardized endodontic paper point tear test in New Zealand white rabbits and comparison between corneal sensitivity followed tear tests. Vet Ophthalmol. 2015; 18 Suppl 1:119-24.
A stimulus produced by the filament that reaches the CTT induces a corneal reflex, consisting of prompt eyelid closure. The CTT is quantified as centimeter length of the filament necessary to cause the blink reflex.
The CTT is determined before (baseline) and at various time points after the application of the test compound (PS). PS was formulated either in β-cyclodextrin (42 or 8 mg/ml) or in a nanocarrier (19 mg/ml). The test drug was formulated in a nanocarrier by the emulsion and evaporation method (Vauthier C, Bouchemal K. Methods for the Preparation and Manufacture of Polymeric Nanoparticles. Pharmaceutical Research; 2009; 26:1025-1058). The formulated stable drug suspension consisted of polylactic acid and polyethylene glycol (PLLA(10k)-PEG(2k)); sodium cholate; and PS. The vehicle control was either β-cyclodextrin or the nanocarrier without PS. Commercially available lidocaine 1% was used as a positive control.
To each eye of adult New Zealand white rabbits was applied […] drops of PS or vehicle or lidocaine, with 5 minutes between each drop. The time of the last drop was taken as the 0 time.
The analgesic effect of PS was further examined on the surface of the eye by determining the corneal touch threshold (CTT) using the Luneau Cochet-Bonnet Aesthesiometer (Western Ophthalmics, Lynwood, Wash.) an adjustable nylon monofilament with a defined diameter, which is applied in different lengths to the center of the cornea.

IL-8 = IL-8 levels in the ILG of rabbits with DED (ELISA); type: in vivo, rabbit
Description: Using this model, we compared the effect of PS to that of cyclosporine and lifitegrast. Rabbits were treated for 6 days with PS as above or cyclosporine 0.05% or lifitegrast 5% eye drops 3×/day. In addition to determining TUBT, osmolarity and STT, we measured the levels of IL-8 and IL-1β in the ILGs of the rabbits harvested at euthanasia. Both of these cytokines are significant mediators of inflammation in DED. As shown in the table below, PS had statistically significant effects on TBUT, tear osmolarity, IL-8 and IL-1β levels. […] Of note, lifitegrast suppressed STT below the levels of the vehicle group and this suppression was statistically significant, but in the opposite direction for a useful therapeutic effect.
Moreover, for all three cytokines PS suppressed their unstimulated levels as well (62%, 84% and 4.7% reduction, respectively). In addition, PS suppressed the levels of IL-8 by 64% and IL-1β (not expressed by the cultured cells) by 61% in the ILG of rabbits treated with PS for 1 week compared to controls treated with vehicle (FIG. 8B). TGF-β was not detectable by the method in ILG homogenates. All these changes were statistically significant (p<0.001-0.04, except for the unstimulated TGF-β).

NF-κB = NF-κB activation in the ILG of rabbits with DED; type: in vivo, rabbit; conditions: 1 week of treatment, vs vehicle
Description: Human conjunctival cells were treated with various concentrations of PS. Five hours later, TNF-α was added to the culture medium to a final concentration of 10 ng/ml and the status of NF-κB activation was determined by EMSA 1 h later. […] Similarly, after 1 week of treatment, PS suppressed NF-κB activation in the ILG of rabbits with DED compared to those treated with vehicle.

VEGF-A = assay: Secreted VEGF in culture medium of human ovarian cancer cells (ELISA); type: cell-based; conditions: PS 1.0×IC50, 24 h
Description: First, the effect of PS on VEGF production was evaluated by cultured human cancer ovarian cells, known to secrete VEGF to recruit vascular endothelial cells for angiogenesis. Therefore, VEGF is one of the most significant and direct targets in an anti-angiogenesis strategy. The experiments discovered that VEGF levels are reduced in ovarian cancer cells by PS. Secreted VEGF was assayed in the culture medium by ELISA.

[2] = tested on: chorioallantoic membrane (CAM); assay: Chorioallantoic membrane (CAM) neovascularization assay; type: in vivo, chicken; conditions: day 4; for # of new vessels: Mean ± SEM
Description: Second, the effect of PS on new vessel formation (neovascularization) was evaluated using the chorioallantoic membrane (CAM) assay. In this assay, fertilized white chicken eggs (SPF Premium, Charles River Laboratory, North Franklin, Conn.) were incubated at 37° C. in 70% humidity for 3 days. The embryos were then incubated ex vivo in a sterile Petri dish for 7 days. Gelatin sponges adsorbed with or without VEGF plus PS or water (vehicle control) were implanted on the CAM surface and the neovasculature was counted on day 4 post implantation under a dissecting microscope.

CCOP(=O)(OCC)OCCCCOC(=O)CC1=C(C)/C(=C/c2ccc([S+](C)[O-])cc2)c2ccc(F)cc21 (stereo not drawn) [PS, phosphosulindac]
Corneal touch threshold (CTT) ([1]; PS 8 mg/ml in β-cyclodextrin, 1 min): 5.3 ± 0.7 centimeter | Corneal touch threshold (CTT) ([1]; PS 8 mg/ml in β-cyclodextrin, 5 min): 5.4 ± 0.8 centimeter | Corneal touch threshold (CTT) ([1]; PS 8 mg/ml in β-cyclodextrin, 10 min): 5.6 ± 0.5 centimeter | Corneal touch threshold (CTT) ([1]; PS 8 mg/ml in β-cyclodextrin, 20 min): 5.6 ± 0.5 centimeter | Corneal touch threshold (CTT) ([1]; PS 8 mg/ml in β-cyclodextrin, 30 min): 5.9 ± 0.3 centimeter | Corneal touch threshold (CTT) ([1]; PS 8 mg/ml in β-cyclodextrin, 45 min): 5.9 ± 0.3 centimeter | Corneal touch threshold (CTT) ([1]; PS 8 mg/ml in β-cyclodextrin, 60 min): 5.9 ± 0.3 centimeter | Corneal touch threshold (CTT) ([1]; PS 8 mg/ml in β-cyclodextrin, baseline): 5.9 ± 0.3 centimeter | Corneal touch threshold (CTT) ([1]; PS 19 mg/ml in nanocarrier, 1 min): 5.4 ± 0.6 centimeter | Corneal touch threshold (CTT) ([1]; PS 19 mg/ml in nanocarrier, 5 min): 5.1 ± 0.8 centimeter | Corneal touch threshold (CTT) ([1]; PS 19 mg/ml in nanocarrier, 10 min): 5.3 ± 0.8 centimeter | Corneal touch threshold (CTT) ([1]; PS 19 mg/ml in nanocarrier, 20 min): 5.5 ± 0.7 centimeter | Corneal touch threshold (CTT) ([1]; PS 19 mg/ml in nanocarrier, 30 min): 5.9 ± 0.2 centimeter | Corneal touch threshold (CTT) ([1]; PS 19 mg/ml in nanocarrier, 45 min): 5.9 ± 0.4 centimeter | Corneal touch threshold (CTT) ([1]; PS 19 mg/ml in nanocarrier, 60 min): 5.9 ± 0.2 centimeter | Corneal touch threshold (CTT) ([1]; PS 19 mg/ml in nanocarrier, baseline): 5.9 ± 0.3 centimeter | Corneal touch threshold (CTT) ([1]; PS 42 mg/ml in β-cyclodextrin, 1 min): 2.7 ± 1.0 centimeter | Corneal touch threshold (CTT) ([1]; PS 42 mg/ml in β-cyclodextrin, 5 min): 3.1 ± 1.2 centimeter | Corneal touch threshold (CTT) ([1]; PS 42 mg/ml in β-cyclodextrin, 10 min): 3.7 ± 1.3 centimeter | Corneal touch threshold (CTT) ([1]; PS 42 mg/ml in β-cyclodextrin, 20 min): 4.1 ± 1.4 centimeter | Corneal touch threshold (CTT) ([1]; PS 42 mg/ml in β-cyclodextrin, 30 min): 5.1 ± 1.0 centimeter | Corneal touch threshold (CTT) ([1]; PS 42 mg/ml in β-cyclodextrin, 45 min): 5.6 ± 0.7 centimeter | Corneal touch threshold (CTT) ([1]; PS 42 mg/ml in β-cyclodextrin, 60 min): 5.9 ± 0.2 centimeter | Corneal touch threshold (CTT) ([1]; PS 42 mg/ml in β-cyclodextrin, baseline): 5.9 ± 0.2 centimeter | analgesia (CTT) ([1]; single eye drop, naïve rabbits, FIG. 10): essentially instantaneous and significant analgesia | IL-8 in the ILG (IL-8; Con A DED rabbits, 6 days, eye drops 3×/day, PS nanoparticles, cyclosporine 0.05%, lifitegrast 5%, mean ± SEM): 4.9 ± 1.7 pg/mg protein | suppression of IL-8 levels in the ILG (IL-8; rabbits treated with PS for 1 week vs vehicle): 64% | NF-κB activation in the ILG (NF-κB): suppressed | VEGF-A, % inhibition (VEGF-A; A2780): 64% | VEGF-A, % inhibition (VEGF-A; A2780ADR): 77% | VEGF-A, % inhibition (VEGF-A; A2780cis): 65% | VEGF-A, % inhibition (VEGF-A; OVCAR-3): 100% | VEGF-A, % inhibition (VEGF-A; SKOV-3): 96% | inhibition at 16 µM ([2]; Gallus gallus, 96 h, VEGF + PS 16 μM): 26% | inhibition at 50 µM ([2]; Gallus gallus, 96 h, VEGF + PS 50 μM): 34% | neovascularization % inhibition ([2]; PS 50 μM without VEGF): 29 (P < 0.016) % | # of new vessels ([2]; PS 50 μM without VEGF): 41 ± 3.2 | # of new vessels ([2]; VEGF + PS 16 μM): 46.4 ± 1.5 | # of new vessels ([2]; VEGF + PS 50 μM): 41.4 ± 1.0
